According to article PMC10947197, “Acid‐Resistant BODIPY Amino Acids for Peptide‐Based Fluorescence Imaging of GPR54 Receptors in Pancreatic Islets” (Angewandte Chemie (International Ed. in English), 2023):

How the values were obtained:
[1] = Photostability under continuous light irradiation; type: physicochemical; conditions: 50 µM, buffer, 37°C, continuous irradiation (Xe lamp, 20 W), λexc 450 nm, λem 510 nm, n=6
Procedure: (§1) S u p p l emen t ary Figure 7. Nor m alized f luoresc ence em is s ion of Trp-BODIPY PLUS ( 50 µ M , buf f er ) at 37° C und er c o nt inu ous l ight ir r adi at ion ( Xe l am p, 20 W ) . λexc: 450 nm; λem: 510 nm . V alues pr es ent e d as m eans ±S D ( n= 6).
(§2) Supplementary Figure 8 . Linear r egr es s ions of t he p eak a bs or b anc e ar ea ( m A U) of T rp-BO DI PY PLUS in DMSO (re d) an d PBS (c ont a ini ng ≤ 1% DM S O , bl ue) at d if f er ent c onc ent r at i ons of t he ami no ac id. Valu es wer e det ermi ned by HPLC-MS us ing UV det ec t ion at 51 0 nm . R2 v alues : 0. 99 9 ( r ed) , 0. 99 4 ( blu e) .
(§3) (also on this page, place not known: time (min) Normalized photostability Normalized fluorescence emission (50 µM, buffer) 37°C under continuous light irradiation (Xe lamp, W) nm; nm. Values presented means±SD (n=6). µM) Peak area (mAU) DMSO) Supplementary 8. regressions the peak absorbance area (mAU) Trp-BODIPY DMSO (red) and (containing ≤1% DMSO, blue) different concentrations the amino acid. Values were determined using detection 510 nm. values: 0.999 (red), 0.994 (blue).)

Storage stability (HPLC) = type: physicochemical; conditions: 5 months in freezer (-20 °C), powder and 5 mM DMSO solution
Procedure: BODIPY PLUS (10 µM) in phosph ate buffer salin e (PBS, white bars) an d phosp hat idy lcho lin e li posom e susp ensi ons (gr ey bars). λ exc: 45 0 nm; λem: 51 0 nm.
V alues pr es ent e d as m ea ns ±S E M ( n= 3) .
Tr p-BODIPY P LU S (-20 °C, solid)
Tr p-BODIPY P LU S (-20 °C, DMSO)
S u p p l emen t ary F i gu re 6 . HP LC tr ac es of T r p-B O DI P Y P LUS aft er 5 m ont hs st or age in t he f r eez er as po wder ( t op) and as 5 mM DMSO s olut i ons ( bot t om ). […]

[2] = Optical properties (absorbance, emission, extinction coefficient); type: physicochemical
Source text: Supplementary Figure 3. Det er m inat ion of t he ex t inc t i on c oef f ic i ent of T rp-BO DI PY P LUS in EtOH. V alues pr es ent e d as m eans ±S E M ( n= 6) .
S u p p l emen t ary F i gu re 4 . […]
(also on this page, place not known: 0.0 0.1 0.2 0.3 0.4 0.5 0.6 ε: 87,680 M-1cm-1 R2: 0.98 (µM) Optical density (500 nm) Determination the extinction coefficient Trp-BODIPY Values presented means±SEM (n=6). Wavelength (nm) fluorescence (RFU) Relative Supplementary Figure 4. Representative emission spectra Trp-BODIPY PLUS µM) water (black) and dioxane (green). (n=3).) […]
Sp ectro sco p y mea su rem en ts. O pt ical prop ert ies were me asure d in a Synergy H 1 B ioT ek spect rop hot om et er at t he ind icat ed co ncent rat i ons o n 96 or 38 4-we ll p lat es.
A bs or ba nc e and em is s i on s pec t r a wer e det er m i ned in t he r ange of 400– 700 nm ( ev er y 2 nm). F or liposom e exp erime nt s, phosph at idylc hol ine (P C)-bas ed li posom es wer e pur c has ed f r om Lipos om a, dilut ed in PBS, and t r ans f er r ed int o a blac k f lat -bot t om 96-well pl at e f or opt ical measur ement s. […]
Cel l exp eri men t s. W ork wit h hum an per iph eral b loo d leuk ocyt es comp lie d wit h al l releva nt et hical r egu lat io ns and inf orme d conse nt was obt a ine d. T he st udy prot oco l was approv ed by t he Medica l Regi ona l Et hics Commit t ee ( 21-EMREC - 04 1) at t he Univers ity of Edinb urgh. H uman blo od le ukocytes w ere iso late d from hea lthy volunt e ers. Brief ly, whole b loo d was ant i-c o agu lat ed w it h s odium c it r at e [ 0. 4% ( w/ v ) f inal c onc ent r at io n] and c ent r if ug ed at 350 g for 20 m i n. P lat elet-ric h plasma w as r em ov ed and aut o log ous s er um was ge ner at e d by r ec alc if ic at ion wit h CaC l2 ( 20 m M f inal co ncent rat i on). […] 5 %/ 63%/ 7 2. 9% d is c ont i nuo us gr adi ent s . […] 9 % int er f ac e. […]
HE K29 3 cel l s. Immort alize d huma n embry onic ki dney ce lls HE K 293 w ere gro wn i n DM EM wit hout py r uv at e wit h 4. 5 g L-1 of D-gluc os e, F B S , and penic ill in/ s t r ept om y c i n

[3] = Stability analysis of Trp-BODIPY FlAAs under SPPS conditions; conditions: for Stability (purity by HPLC-MS): 70 μM; for Stability (purity by HPLC-MS) / Chemical stability (HPLC-MS): r.t.; for Chemical stability (HPLC-MS): 70 µM;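 for all read-outs here: chemical integrity of the BODIPY-labelled tryptophan amino acids checked after exposure to reagents used in solid-phase peptide synthesis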
Procedure: Next, we studied the stability of Trp‐BODIPY PLUS in TFA and compared it to that of Trp‐BODIPY (Table 2).
Analysis of t he chemical st abilit y of T rp-BO DI PY and T rp-
BODIPY PLUS under conve nt ion al SPPS condit i ons. Amino aci ds were di lut ed w it h
dif f erent rea gent mixt ur es (70 µ M , f inal v olum e 10 0 uL) a nd st irre d at r. t . f or 1 h
( c ondit i ons A-B and E-H) or 5 m i n ( c o ndit i ons C an d D).
Fmoc-T rp -BO DI PY(X)2-OH
En t ry Conditions X = F X = CN

[4] = Solubility: linear regression of HPLC peak area in DMSO and PBS; type: physicochemical; conditions: DMSO and PBS (≤1% DMSO), HPLC-MS with UV detection at 510 nm
Procedure: as §1, §2, §3

CC1=CC(C)=[N+]2C1=C(c1cccc(-c3[nH]c4ccccc4c3C[C@H](NC(=O)OCC3c4ccccc4-c4ccccc43)C(=O)O)c1)c1c(C)cc(C)n1[B-]2(C#N)C#N [Trp-BODIPY PLUS]
Photostability (in words) [1]: suitable solubility and photo‐ and chemical stability for long‐term storage
Chemical stability on storage (in words) (Storage stability (HPLC)): chemical stability for long‐term storage
Absorbance maximum wavelength [2]: 500 nm
Emission maximum wavelength [2]: 515 nm
Extinction coefficient ([2]; in EtOH, optical density at 500 nm, n=6, fit to Beer's law): 87,680 M-1cm-1
Stability (purity by HPLC-MS) ([3]; 2% N2H4 in DMF, 60 min): > 95%
Stability (purity by HPLC-MS) ([3]; 95% TFA, 2.5% DTT, 60 min, DCM): > 95%
Stability (purity by HPLC-MS) ([3]; 95% TFA, 2.5% H2O, 60 min, DCM): > 95%
Stability (purity by HPLC-MS) ([3]; 95% TFA, 2.5% TIS, 60 min, DCM): > 95%
Stability (purity by HPLC-MS) ([3]; 95% TFA, 5 min, DCM): > 95%
Stability in TFA (in words) ([3]; 95% TFA, 1 h): fully resistant to TFA even after 1 h
Stability (purity by HPLC-MS) ([3]; 95% TFA, 60 min, DCM): > 95%
Stability (purity by HPLC-MS) ([3]; I2 (5 eq) in MeOH, 60 min): 6%
Stability (purity by HPLC-MS) ([3]; Pd(PPh3)4 (0.1 eq), PhSiH3 (10 eq), 60 min, DCM): > 95%
Chemical stability (HPLC-MS) ([3]; Supplementary Table 2 entry A: 1% TFA, 2.5% DTT, 1 h): > 95%
Chemical stability (HPLC-MS) ([3]; Supplementary Table 2 entry B: 5% TFA, 2.5% DTT, 1 h): > 95%
Chemical stability (HPLC-MS) ([3]; Supplementary Table 2 entry C: 95% TFA, 2.5% DTT, 5 min): > 95%
Chemical stability (HPLC-MS) ([3]; Supplementary Table 2 entry D: 20% piperidine: DMF, 5 min): > 93%
Chemical stability (HPLC-MS) ([3]; Supplementary Table 2 entry E: 5% NaHCO3 (aq), 1 h): > 95%
Chemical stability (HPLC-MS) ([3]; Supplementary Table 2 entry F: 5% Na2CO3 (aq), 1 h): > 95%
Chemical stability (HPLC-MS) ([3]; Supplementary Table 2 entry G: 1% DIPEA: DMF, 1 h): > 95%
Chemical stability (HPLC-MS) ([3]; Supplementary Table 2 entry H: 0.1 M HOBt: TFE, 1 h): > 95%
Stability (purity by HPLC-MS) ([3]; TBAF (3 eq), 60 min, DCM): > 95%
Stability to iodine (in words) ([3]; presence of iodine): degraded in the presence of iodine
Solubility (in words) [4]: suitable solubility
